ChEMBL document CHEMBL5512637, “Development of Membrane-Targeting Fluorescent 2-Phenyl-1H-phenanthro[9,10-d]imidazole-Antimicrobial Peptide Mimic Conjugates against Methicillin-Resistant Staphylococcus aureus” (J Med Chem, 2024)
Active and inactive are the calls of the source. The rule behind the calls is not given here.

Key:
Staphylococcus aureus [1] = assay: Antibacterial activity against Staphylococcus aureus ATCC 29213 incubated for 16 to 18 hrs CLSI based by microbroth dilution assay; type: functional; conditions: time 16-18 hrs
Escherichia coli = assay: Antibacterial activity against Escherichia coli ATCC 25922 incubated for 16 to 18 hrs CLSI based by microbroth dilution assay; type: functional; conditions: time 16-18 hrs
Staphylococcus aureus [2] = assay: Antibacterial activity against methicillin-resistant Staphylococcus aureus clinical isolate M-1 incubated for 16 to 18 hrs CLSI based by microbroth dilution assay; type: functional; conditions: time 16-18 hrs
Staphylococcus aureus [3] = assay: Antibacterial activity against methicillin-resistant Staphylococcus aureus clinical isolate M-2 incubated for 16 to 18 hrs CLSI based by microbroth dilution assay; type: functional; conditions: time 16-18 hrs
Staphylococcus aureus [4] = assay: Antibacterial activity against methicillin-resistant Staphylococcus aureus clinical isolate M-6 incubated for 16 to 18 hrs CLSI based by microbroth dilution assay; type: functional; conditions: time 16-18 hrs
Staphylococcus aureus [5] = assay: Antibacterial activity against methicillin-resistant Staphylococcus aureus clinical isolate M-7 incubated for 16 to 18 hrs CLSI based by microbroth dilution assay; type: functional; conditions: time 16-18 hrs
Staphylococcus aureus [6] = assay: Antibacterial activity against methicillin-resistant Staphylococcus aureus clinical isolate M-8 incubated for 16 to 18 hrs CLSI based by microbroth dilution assay; type: functional; conditions: time 16-18 hrs
Staphylococcus aureus [7] = assay: Antibacterial activity against methicillin-resistant Staphylococcus aureus clinical isolate M-9 incubated for 16 to 18 hrs CLSI based by microbroth dilution assay; type: functional; conditions: time 16-18 hrs
Staphylococcus aureus [8] = assay: Bactericidal activity against methicillin-resistant Staphylococcus aureus clinical isolate M-4 at 4 to 8 times MIC by time kill assay; type: functional, organism-based; conditions: TDE = time-dependent effect
Staphylococcus aureus [9] = assay: Bactericidal activity against Staphylococcus aureus ATCC 29213 by time kill assay; type: functional, organism-based
Staphylococcus aureus [10] = assay: Bactericidal activity against Staphylococcus aureus ATCC 29213 at 8 times MIC incubated for 1 hr by time kill assay relative to control; type: functional
Staphylococcus aureus [11] = assay: Bactericidal activity against methicillin-resistant Staphylococcus aureus clinical isolate M-4 at 8 times MIC incubated for 4 hrs by time kill assay relative to control; type: functional
Staphylococcus aureus [12] = assay: Antibacterial activity against Staphylococcus aureus ATCC 29213 at 1 ug/ml in presence of exogenous DNA; type: functional, organism-based; conditions: dose 1.0 µg/ml
Staphylococcus aureus [13] = assay: Disruption of cell membrane in methicillin-resistant Staphylococcus aureus clinical isolate M-4 assessed as rough cell membrane at 8 times MIC incubated for 1 hr by SEM analysis; type: functional, organism-based
Staphylococcus aureus [14] = assay: Disruption of cell membrane in methicillin-resistant Staphylococcus aureus clinical isolate M-4 assessed as wrinkled cell membrane at 8 times MIC incubated for 1 hr by SEM analysis; type: functional, organism-based
Staphylococcus aureus [15] = assay: Disruption of cell membrane in methicillin-resistant Staphylococcus aureus clinical isolate M-4 assessed as decrease in blue fluorescence at 4 ug/ml incubated for 4 hrs by DAPI/PI staining based laser confocal microscopy; type: functional, organism-based; conditions: dose 4.0 µg/ml
Staphylococcus aureus [16] = assay: Disruption of cell membrane in methicillin-resistant Staphylococcus aureus clinical isolate M-4 assessed as increase in red fluorescence at 4 ug/ml incubated for 4 hrs by DAPI/PI staining based laser confocal microscopy; type: functional, organism-based; conditions: dose 4.0 µg/ml
Staphylococcus aureus [17] = assay: Disruption of cell membrane in methicillin-resistant Staphylococcus aureus clinical isolate M-4 assessed as protein leakage at 1 to 8 times MIC incubated for 4 hrs by BCA assay; type: functional, organism-based
Staphylococcus aureus [18] = assay: Disruption of cell membrane in methicillin-resistant Staphylococcus aureus clinical isolate M-4 assessed as fold increase in intracellular ROS level at 32 ug/ml incubated for 1 hr by DCFH-DA dye based analysis relative to control; type: functional; conditions: dose 32 µg/ml
Staphylococcus aureus [19] = assay: Antibacterial activity against methicillin-resistant Staphylococcus aureus clinical isolate M-4 upto 128 ug/ml incubated for 16 to 18 hrs in presence of phosphatidylglycerol by broth dilution method; type: functional, organism-based; conditions: dose <= 128.0 µg/ml, time 16-18 hrs
Staphylococcus aureus [20] = assay: Antibacterial activity against methicillin-resistant Staphylococcus aureus clinical isolate M-4 upto 128 ug/ml incubated for 16 to 18 hrs in presence of phosphatidylethanolamine by broth dilution method; type: functional, organism-based; conditions: dose <= 128.0 µg/ml, time 16-18 hrs
Staphylococcus aureus [21] = assay: Antibacterial activity against methicillin-resistant Staphylococcus aureus clinical isolate M-4 upto 128 ug/ml incubated for 16 to 18 hrs in presence of cardiolipin by broth dilution method; type: functional, organism-based; conditions: dose <= 128.0 µg/ml, time 16-18 hrs
[22] = Cytotoxicity against human L02 cells assessed as cell survival at 16 ug/ml by MTT assay relative to control; type: toxicity, cell-based; conditions: at 16 µg/mL, read-out: Survival
[23] = Cytotoxicity against human L02 cells assessed as cell survival at 32 ug/ml by MTT assay relative to control; type: toxicity, cell-based; conditions: at 32 µg/mL, read-out: Survival
[24] = Toxicity in KM mouse assessed as red swollen appearance of skin at administration site at 40 to 80 mg/kg, sc measured for 24 hrs; type: organism-based; conditions: in vivo, dose 40-80 mg/kg
[25] = Toxicity in KM mouse assessed as red swollen appearance of skin at administration site at 5 to 20 mg/kg, sc measured for 24 hrs; type: organism-based; conditions: in vivo, dose 5-20 mg/kg
[26] = Toxicity in KM mouse assessed as change in hemoglobin level at 20 mg/kg, sc measured after 24 hrs; type: organism-based; conditions: in vivo
[27] = Toxicity in KM mouse assessed as change in mean corpuscular volume at 20 mg/kg, sc measured after 24 hrs; type: organism-based; conditions: in vivo
[28] = Toxicity in KM mouse assessed as change in hematocrit level at 20 mg/kg, sc measured after 24 hrs; type: organism-based; conditions: in vivo
[29] = Toxicity in KM mouse assessed as change in RBC count at 20 mg/kg, sc measured after 24 hrs; type: organism-based, Erythrocyte; conditions: in vivo
[30] = Toxicity in KM mouse assessed as change in platelet count at 20 mg/kg, sc measured after 24 hrs; type: organism-based; conditions: in vivo
[31] = Toxicity in KM mouse assessed as change in WBC count at 20 mg/kg, sc measured after 24 hrs; type: organism-based; conditions: in vivo
[32] = Toxicity in KM mouse assessed as histological abnormality in heart at 20 mg/kg, sc measured after 24 hrs by H and E staining based analysis; type: organism-based; conditions: in vivo
[33] = Toxicity in KM mouse assessed as histological abnormality in lungs at 20 mg/kg, sc measured after 24 hrs by H and E staining based analysis; type: organism-based; conditions: in vivo
[34] = Toxicity in KM mouse assessed as histological abnormality in kidney at 20 mg/kg, sc measured after 24 hrs by H and E staining based analysis; type: organism-based; conditions: in vivo
Staphylococcus aureus [35] = assay: Antibacterial activity against methicillin-resistant Staphylococcus aureus clinical isolate M-4 infected in KM mouse assessed as decrease in abnormality in skin area at 10 mg/kg, sc measured after 24 hrs by H and E staining based analysis; type: functional, organism-based
Staphylococcus aureus [36] = assay: Antibacterial activity against methicillin-resistant Staphylococcus aureus clinical isolate M-4 infected in KM mouse assessed as reduction in skin inflammation at 10 mg/kg, sc measured after 24 hrs by H and E staining based analysis; type: functional, organism-based
Staphylococcus aureus [37] = assay: Antibacterial activity against methicillin-resistant Staphylococcus aureus clinical isolate M-4 infected in KM mouse assessed as survival rate of bacteria at 10 mg/kg, sc measured after 24 hrs relative to control; type: functional
[38] = Toxicity in KM mouse infected with methicillin-resistant Staphylococcus aureus clinical isolate M-4 assessed as histopathological abnormality in kidneys at 5 to 10 mg/kg, sc measured after 24 hrs by H and E staining based analysis; type: organism-based; conditions: in vivo, dose 5-10 mg/kg

CCCCCNC(=O)C[N+](C)(C)CCCCn1c(-c2ccc(N(C)C)cc2)nc2c3ccccc3c3ccccc3c21.[Br-]
MIC (Staphylococcus aureus [1]): 1 µg/mL
MIC (Escherichia coli): 32 µg/mL
MIC (Staphylococcus aureus [2]): 2 µg/mL
MIC (Staphylococcus aureus [3]): 1 µg/mL
MIC (Staphylococcus aureus [4]): 0.5 µg/mL
MIC (Staphylococcus aureus [5]): 0.5 µg/mL
MIC (Staphylococcus aureus [6]): 0.5 µg/mL
MIC (Staphylococcus aureus [7]): 0.5 µg/mL
Activity (Staphylococcus aureus [8]): Tde
Activity (Staphylococcus aureus [9]): Dose-Dependent Effect
Activity (Staphylococcus aureus [10]): 100%
Activity (Staphylococcus aureus [11]): 100%
Activity (Staphylococcus aureus [12]): Active
Activity (Staphylococcus aureus [13]): Active
Activity (Staphylococcus aureus [14]): Active
Activity (Staphylococcus aureus [15]): Active
Activity (Staphylococcus aureus [16]): Active
Activity (Staphylococcus aureus [17]): Active
fold change (FC) (Staphylococcus aureus [18]): ~3
Activity (Staphylococcus aureus [19]): inactive
Activity (Staphylococcus aureus [20]): Active
Activity (Staphylococcus aureus [21]): Active
viability at 16 ug/ml [22]: 100%
viability at 32 ug/ml [23]: > 72.2%
Activity [24]: Toxic
Activity [25]: Non-Toxic
Activity [26]: Non-Toxic
Activity [27]: Non-Toxic
Activity [28]: Non-Toxic
Activity [29]: Non-Toxic
Activity [30]: Non-Toxic
Activity [31]: Non-Toxic
Activity [32]: Non-Toxic
Activity [33]: Non-Toxic
Activity [34]: Non-Toxic
Activity (Staphylococcus aureus [35]): Active
Activity (Staphylococcus aureus [36]): Active
survival at 10 mg/kg (Staphylococcus aureus [37]): 0.01%
Activity [38]: Non-Toxic
